“And” between values parts separate entries of the source, which are not always exact repeats. Equal entries are not always repeated. Where two headings read alike, the source gives them in different places.
Tests used:
[1] = test system: LINE-1 DNA methylation in MV4-11; experiment: LINE-1 pyrosequencing; assay type: cell-based, human
Protocol: (§1) DNA methylation of the repetitive element LINE-1 was analyzed using a pyrosequencing technique. […] Cells were washed twice with PBS, and then genomic DNA was extracted using a DNA Kit (Nucleo Spin Tissue, Cat No 74095250, Macherey-Nagel) following the manufacturer's instructions. DNA purity and concentration were measured using a NanoDrop spectrophotometer (Thermo Scientific). A 1 μg amount of genomic DNA was treated and modified using a CpGenome DNA modification Kit (Cat No S7820, Chemicon International) following the manufacturer's instructions. […] [NT]) in a final volume of 25 μL. The resulting biotinylated PCR products were immobilized to Streptavidin Sepharose ® High-Performance beads (GE Healthcare) and processed to yield high-quality ssDNA using the PyroMark Vacuum Prep Workstation (Biotage) according to the manufacturer's instructions. The pyrosequencing reactions were performed using the PyromarkTM ID (Biotage), and sequence analysis was performed using the PyroQ-CpG analysis software (Biotage).

[2] = test system: LINE-1 DNA methylation in MOLM-13; experiment: LINE-1 pyrosequencing; assay type: cell-based, human
Protocol: as §1

[3] = test system: LINE-1 DNA methylation in HL-60; experiment: LINE-1 pyrosequencing; assay type: cell-based, human
Protocol: as §1

[4] = Liver microsomal stability; assay type: in vitro ADME; details: read-out: Liver Microsomal Stability Estimation T1/2
Protocol: This study was conducted at Wuxi (http://www.wuxi.com/). […] A 5-μL aliquot of stock solution of test compound (10 mM; 100% DMSO) was diluted in 495 μL of […] (final concentration of 100 μM, 99% MeOH). Then, 50 μL of this intermediate solution was diluted in 450 μL of 100 mM potassium phosphate buffer to a concentration of 10 μM (working solution, 9.9% MeOH). The β-nicotinamide adenine dinucleotide phosphate reduced form (NADPH) regenerating system also contained tetrasodium salt, NADPH•4Na (Sigma, Cat.# No.00616). Human liver microsomes were obtained from Corning (Cat.#452117), and C57 mouse liver microsomes from Xenotech (Cat.#M5000), at a final concentration of 0.5 mg protein/mL. A volume of 10 μL of working solution of test and control compounds (testosterone, diclofenac and propafenone) and 80 μL/well microsome solution were added to a 96-well plate and incubated for 10 min at 37 °C. The reaction was started by the addition of 10 μL of NADPH regenerating system and stopped by the addition of 300 μL of stop solution (acetonitrile at 4 °C, including 100 ng/mL tolbutamide and 100 ng/mL of labetalol as internal standard) at different incubation times (0, 5, 10, 20, 30, and 60 min). Then, the samples were shaken for 10 min and centrifuged at 1699 g for 20 min at 4 °C. An aliquot of supernatant (100 μL) was transferred from each well and mixed with 300 μL of ultra-pure water before submitting to LC-MS/MS analysis. Concentrations of test and control compounds were quantified by LC-MS/MS using a peak area ratio of analyte/internal standard, and the percent loss of the parent compound was calculated at each time point to determine the half-life (t1/2, min). Experiments were performed in duplicate.

[5] = test system: HL-60 cells in BALB/cA Rag2-/-γc-/- mice; experiment: Subcutaneous implant of in vitro pretreated cells, tumor volume; assay type: in vivo, mouse; parameters: key to Tumor volume: mm^3; V = D×d²/2 (D longest, d shortest diameter); details: for Tumor volume: HL-60 cells pretreated in vitro for 96 hours with 270 nM of CM-444 or 300 nM of CM-1758, injected subcutaneously, individual mice
Protocol: (§2) The human AML HL-60 and ML-2 cell lines were first pretreated in vitro daily with 270 and 260 nM of CM-444 or 300 and 210 nM of CM-1758, respectively, for 4 days. Prior to injection in mice, the cell differentiation induction by CM-444 and CM-1758 compounds was verified by measuring CD11b by flow cytometry, as described earlier. Then, 5 × 10^6 cells of cells, pretreated with CM-444, […], or vehicle (80% saline solution, 10% DMSO and 10% Tween 20) and diluted in 100 µL of saline solution, were implanted subcutaneously into the flank of female BALB/cA Rag2^−/−γc^−/− mice between 6 and 8 weeks of age (n = 8). Tumor size was analyzed every 2–3 days using the following method: […], where D and d corresponded to the longest and shortest diameter, respectively. The maximal tumor size/burden permitted by the Animal Care and Ethics Committee of the University of Navarra is 2000 mm^3. In some cases, this limit was reached on the last day of measurement and the mice were immediately euthanized.

[6] = test system: ML-2 cells in BALB/cA Rag2-/-γc-/- mice; experiment: as above; assay type: in vivo, mouse; parameters: key to Tumor volume: mm^3; V = D×d²/2 (D longest, d shortest diameter); details: for Tumor volume: ML-2 cells pretreated in vitro for 96 hours, injected subcutaneously, individual mice (Fig 3A)
Protocol: as §2

COc1cc2nc(-c3ccc(C)o3)cc(NCC3CCN(c4ncc(C(=O)NO)cn4)CC3)c2cc1OC [CM-444, 2-[4-[[[6,7-dimethoxy-2-(5-methyl-2-furyl)-4-quinolyl]amino]methyl]-1-piperidyl]pyrimidine-5-carbohydroxamic acid]
LINE-1 methylation (%) CG Position 1 ([1]; MV4-11, 48 hours): 83% and 85%
LINE-1 methylation (%) CG Position 2 ([1]; MV4-11, 48 hours): 79% and 77%
LINE-1 methylation (%) CG Position 3 ([1]; MV4-11, 48 hours): 99% and 97%
LINE-1 methylation (%) CG Position 4 ([1]; MV4-11, 48 hours): 100%
LINE-1 methylation (%) CG Position 5 ([1]; MV4-11, 48 hours): 70% and 66%
LINE-1 methylation (%) CG Position 1 ([1]; MV4-11, 5 days): 80% and 82%
LINE-1 methylation (%) CG Position 2 ([1]; MV4-11, 5 days): 79% and 77%
LINE-1 methylation (%) CG Position 3 ([1]; MV4-11, 5 days): 77%
LINE-1 methylation (%) CG Position 4 ([1]; MV4-11, 5 days): 91% and 89%
LINE-1 methylation (%) CG Position 5 ([1]; MV4-11, 5 days): 65% and 67%
LINE-1 methylation (%) CG Position 1 ([2]; MOLM-13, 48 hours): 100%
LINE-1 methylation (%) CG Position 2 ([2]; MOLM-13, 48 hours): 83% and 79%
LINE-1 methylation (%) CG Position 3 ([2]; MOLM-13, 48 hours): 100%
LINE-1 methylation (%) CG Position 4 ([2]; MOLM-13, 48 hours): 100%
LINE-1 methylation (%) CG Position 5 ([2]; MOLM-13, 48 hours): 74% and 78%
LINE-1 methylation (%) CG Position 1 ([2]; MOLM-13, 5 days): 62%
LINE-1 methylation (%) CG Position 2 ([2]; MOLM-13, 5 days): 60% and 68%
LINE-1 methylation (%) CG Position 3 ([2]; MOLM-13, 5 days): 69% and 73%
LINE-1 methylation (%) CG Position 4 ([2]; MOLM-13, 5 days): 74% and 76%
LINE-1 methylation (%) CG Position 5 ([2]; MOLM-13, 5 days): 53% and 55%
LINE-1 methylation (%) CG Position 1 ([3]; 48 h, 0.27 µM): 97%
LINE-1 methylation (%) CG Position 2 ([3]; 48 h, 0.27 µM): 83%
LINE-1 methylation (%) CG Position 3 ([3]; 48 h, 0.27 µM): 100%
LINE-1 methylation (%) CG Position 4 ([3]; 48 h, 0.27 µM): 100%
LINE-1 methylation (%) CG Position 5 ([3]; 48 h, 0.27 µM): 73%
LINE-1 methylation (%) CG Position 1 Replicate 1 ([3]; HL-60, 48 h): 96%
LINE-1 methylation (%) CG Position 1 Replicate 2 ([3]; HL-60, 48 h): 98%
LINE-1 methylation (%) CG Position 2 Replicate 1 ([3]; HL-60, 48 h): 84%
LINE-1 methylation (%) CG Position 2 Replicate 2 ([3]; HL-60, 48 h): 82%
LINE-1 methylation (%) CG Position 3 Replicate 1 ([3]; HL-60, 48 h): 100%
LINE-1 methylation (%) CG Position 3 Replicate 2 ([3]; HL-60, 48 h): 100%
LINE-1 methylation (%) CG Position 4 Replicate 1 ([3]; HL-60, 48 h): 100%
LINE-1 methylation (%) CG Position 4 Replicate 2 ([3]; HL-60, 48 h): 100%
LINE-1 methylation (%) CG Position 5 Replicate 1 ([3]; HL-60, 48 h): 72%
LINE-1 methylation (%) CG Position 5 Replicate 2 ([3]; HL-60, 48 h): 74%
LINE-1 methylation (%) CG Position 1 ([3]; HL-60, 10 days): 77% and 81%
LINE-1 methylation (%) CG Position 2 ([3]; HL-60, 10 days): 66% and 70%
LINE-1 methylation (%) CG Position 3 ([3]; HL-60, 10 days): 71% and 75%
LINE-1 methylation (%) CG Position 4 ([3]; HL-60, 10 days): 86% and 88%
LINE-1 methylation (%) CG Position 5 ([3]; HL-60, 10 days): 65% and 63%
half-life at 1 µM ([4]; C57, mouse liver microsomes): 18.4 min
half-life at 1 µM ([4]; human liver microsomes): 28.8 min
tumor growth ([5]; HL-60 cells pretreated in vitro 4 days, s.c.): tumor growth was significantly slower
Tumor volume ([5]; day 0, in mm³): 0
Tumor volume ([5]; day 6): 0 (3×) and 15.188 and 103.406 and 17.053
Tumor volume ([5]; day 8, in mm³): 74.6826 and 76.624 and 60.9783 and 227.696 and 55.1928 and 10.6605 and 0
Tumor volume ([5]; day 10, in mm³): 208.487 and 290.654 and 187.094 and 596.573 and 195.686 and 84.5628 and 14.1488
Tumor volume ([5]; day 13, in mm³): 1082.75 and 1016.65 and 1040.97 and 728.909 and 903.701 and 1085.29
tumor growth ([6]; ML-2 cells pretreated in vitro 4 days, s.c.): tumor growth was significantly slower
Tumor volume ([6]; day 0, in mm³): 0
Tumor volume ([6]; day 5, in mm³): 0
Tumor volume ([6]; day 7, in mm³): 0
Tumor volume ([6]; day 9): 0 (5×) and 2.103 and 2.907 and 1.967
Tumor volume ([6]; day 12): 0 (3×) and 15.5058 and 44.8074 and 14.292 and 43.7037 and 21.7346
Tumor volume ([6]; day 14, in mm³): 56.0772 and 79.1967 and 185.795 and 76.3392 and 203.44 and 147.179 and 18.725 and 23.4078
Tumor volume ([6]; day 16, in mm³): 136.524 and 233.533 and 382.095 and 345.104 and 527.015 and 508.257 and 54.687 and 46.2692
